Assay results from patent US9884049B2, “Microbicidal composition comprising an octoxynol and a quinolizidine alkaloid compound or a source thereof” (NOVICOL INTERNATIONAL HOLDING INC., priority 2014, dated 2018).

Experiments:
[1] = tested on: TZM-b1 cells; assay: Cytotoxicity, XTT assay
[2] = tested on: HIV-1MN; assay: Anti-HIV activity, MAGI assay in TZM-b1 cells; conditions: for EC50: HIV-1MN
[3] = tested on: HIV-1ADA-M; assay: Anti-HIV activity, MAGI assay in TZM-b1 cells; conditions: for EC50: HIV-1ADA-M
[4] = tested on: TZM-b1 cells; assay: Cytotoxicity, CyQuant assay
[5] = tested on: HIV; conditions: nearly 1,000 sex workers in Africa, versus placebo; cited from earlier work
[6] = Wash (washed four hours after, then 72 h)

Compound | CC50 ([1]; No wash) | CC50 ([1]; Wash) | TI (CC50/EC50) ([2]; CyQuant/HIV-1MN, No wash) | TI (CC50/EC50) ([2]; CyQuant/HIV-1MN, Wash) | EC50 ([2]; No wash) | EC50 ([2]; Wash) | TI (CC50/EC50) ([2]; XTT/HIV-1MN, No wash) | TI (CC50/EC50) ([2]; XTT/HIV-1MN, Wash) | TI (CC50/EC50) ([3]; CyQuant/HIV-1ADA-M, No wash) | TI (CC50/EC50) ([3]; CyQuant/HIV-1ADA-M, Wash) | EC50 ([3]; No wash) | EC50 ([3]; Wash) | TI (CC50/EC50) ([3]; XTT/HIV-1ADA-M, No wash) | TI (CC50/EC50) ([3]; XTT/HIV-1ADA-M, Wash) | CC50 ([4]; No wash (72 h)) | CC50 [4, 6] | HIV infection rate, higher than with placebo [5]
O=C1CCC[C@@H]2[C@H]3CCCN4CCC[C@@H](CN12)[C@@H]34 [Matrine, matrine] | 0.3122 % (w/v) | 1.1040 % (w/v) | 8.91 | 7.06 | 0.0700 % (w/v) | 0.0500 % (w/v) | 4.46 | 22.08 | 3.01 | 0.89 | 0.2075 % (w/v) | 0.3948 % (w/v) | 1.50 | 2.80 | 0.6240 % (w/v) | 0.3530 % (w/v) | 
IGEPAL® CA-630 | 0.0002 % (w/v) | 0.0072 % (w/v) | 2.95 | 1.55 | 0.0012 % (w/v) | 0.0031 % (w/v) | 0.13 | 2.31 | 9.73 | 1.38 | 0.00037 % (w/v) | 0.0035 % (w/v) | 0.43 | 2.05 | 0.0036 % (w/v) | 0.0048 % (w/v) | 
nonoxynol-9 |  |  |  |  |  |  |  |  |  |  |  |  |  |  |  |  | about 50%
